One may read the inhibition as the share of the control response that was lost under treatment.

Molecules are shown by their SMILES.

The target of one test is T1, 5α-reductase (Homo sapiens, UniProt P18405).
T1 construct: host or cells: Hs68 human genital skin fibroblasts
T1 sequence (P18405 1-259): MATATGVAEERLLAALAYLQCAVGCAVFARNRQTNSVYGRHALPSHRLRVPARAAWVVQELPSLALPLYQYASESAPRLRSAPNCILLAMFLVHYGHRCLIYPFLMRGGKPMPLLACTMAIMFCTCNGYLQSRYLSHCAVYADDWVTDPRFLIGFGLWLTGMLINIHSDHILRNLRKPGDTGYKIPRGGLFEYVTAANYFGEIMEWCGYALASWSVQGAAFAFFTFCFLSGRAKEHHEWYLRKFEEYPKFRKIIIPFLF
In words: 5α-Reductase activity in Hs68 human genital skin fibroblasts (conversion of labeled testosterone, TLC analysis). Format: cell-based. The conditions noted are these: Hs68, test compound 0.316 µM; Hs68 cells; substrate testosterone 12 µM; incubated four hours; read-out: % Inhibition. On the procedure:
Cell Culture: 5α-Reductase activity was measured using Hs68 human genital skin fibroblasts which were originally purchased from the American Type Culture Collection (Rockville, MD). The cells were grown in Dulbecco's Modified Eagle's Medium (DMEM) plus 10% stripped fetal bovine serum which was supplemented with amphotericin B ([…]) and gentamicin ([…]) (GIBCO, Grand Island, NY). The serum was stripped of endogenous steroids by incubation with dextran-coated charcoal prior to its addition to the media. The cells were maintained at 37°C in an atmosphere of 95% air, 5% CO2 and were passaged every 7-10 days by exposure to a trypsin-EDTA solution (0.025% trypsin, 0.265 mM EDTA). Prior to the assay the Hs68 cells were harvested and plated in Falcon 6-well plates (Becton Dickinson Labware, Lincoln Park, NJ) at a density of 6 x 10^4 cells per well. The cells were allowed to grow for 4-5 days or until they reached approximately 80% confluence.
Assay Method I: The substrate was prepared by dissolving unlabeled testosterone (Sigma Chemical Co., St. Louis, MO) in absolute ethanol followed by the addition of [7-^3H (N)]-testosterone (23.3 Ci/mmole, New England Nuclear, Boston, MA). The steroid solution was taken to dryness under a stream of nitrogen and then reconstituted in media.
Assay Method II: The substrate used for this method was [^14C]-testosterone (50 mCi/mmol) (New England Nuclear, Boston, MA). An aliquot of the substrate was taken to dryness under a stream of nitrogen. After the addition of 30 µl of ethanol, the testosterone was dissolved in an appropriate volume of media.
Sample Preparation: The test compounds were brought up in absolute ethanol in order to achieve the desired concentration. Subsequent dilutions of the test compounds with media were performed by the Biomek 1000 Automated Laboratory Workstation (Beckman Instruments, Palo Alto, CA). The existing media in the sample wells was aspirated and replaced with fresh media. Test compound was then added to the wells followed by the addition of 0.5 ml of substrate. The volume of the incubation mixture was maintained at 2.0 ml. The final substrate concentration was 12 µM. The concentration of the test compounds ranged from 0.001-150 µM. An additional three wells (background) containing media and substrate but no cells were also included to account for the non-enzymatic metabolism of the substrate. The plates were returned to the incubator and incubated for four hours.
At the end of the incubation the media was collected and transferred to an extraction tube containing 5 ml of toluene-ethanol (9:1), to which has been added 20-250 µg each of unlabeled carrier steroids (estriol, estradiol, estrone, 5α-androstan-3α,17β-diol, 5α-androstan-3β,17β-diol, 4-androstene-3,17-dione, 5α-androstan-3,17-dione, testosterone, and 5α-dihydrotestosterone) (Steraloids, Inc., Wilton, NH). In the case of Assay Method I the extraction tube also contained 1,000 and 10,000 dpm of [4-^14C]-dihydrotestosterone (50-60 mCi/mmol) and [4-^14C]-testosterone (50 mCi/mmol) (New England Nuclear, Boston, MA), respectively. The [^14C]-steroids were included as recovery standards to quantify procedural losses. A small amount of NaCl was also added to the extraction tubes to prevent foaming. The samples were vortexed for approximately 30 seconds and then centrifuged for 10 minutes at 500 x g. The organic phase was collected and the samples taken to dryness, redissolved in dichloromethane-methanol (9:1) and were analyzed by thin layer chromatography using one of the methods described below.
Chromatography Method I (two-dimensional): The extracted samples were appled to silica gel 60F254, 0.25 mm thick, thin layer chromatography plates (EM Science, Cincinnati, OH). The plates were developed in the first dimension with a solvent system containing dichloromethane-ethyl acetate-methanol-acetic acid (160:38:1.5:0.5, Mallinckrodt Inc., Paris, KY).
Consider `CC(C)(C)c1ccc2c(c1)CCC1NC(=O)CCC21` (racemic) [Example 30, trans-dl-8-t-butyl-1,2,3,4,4a,5,6,10b-octahydrobenzo[f]quinolin-3-one], for which the inhibition at 0.316 µM was determined as 38.5%. For the compound `CN1C(=O)CCC2c3ccc(C(C)(C)C)cc3CCC21` (racemic) [Example 31, trans-dl-8-t-butyl-4-methyl-1,2,3,4,5,6,10b-octahydrobenzo[f]quinolin-3-one], the inhibition at 0.316 µM stood at 82.1%.

As for `CN1C(=O)CC[C@@H]2c3cc([N+](=O)[O-])ccc3CC[C@H]21` (racemic) [Example 47, trans-dl-9-nitro-4-methyl-1,2,3,4,4a,5,6,10b-octahydrobenzo[f]quinolin-3-one], the inhibition at 0.316 µM was determined as 49.7%. The same measure, in the same setting: the same measure for `CN1C(=O)CC[C@@H]2c3cc(N)ccc3CC[C@H]21` (racemic) [Example 48, trans-dl-9-amino-4-methyl-1,2,3,4,4a,5,6,10b-octahydrobenzo[f]quinolin-3-one]: 4.36%. On to `CN1C(=O)CC[C@@H]2c3cc(Cl)ccc3CC[C@H]21` (racemic) [Example 49, trans-dl-9-chloro-4-methyl-1,2,3,4,4a,5,6,10b-octahydrobenzo[f]guinolin-3-one], for which the inhibition at 0.316 µM worked out at 65.7%. On the same count and under the same terms, next, `O=C1C=C[C@@H]2c3ccc(Cl)cc3CC[C@H]2N1` (racemic) [Example 50A, trans-dl-8-chloro-3,4,4a,5,6,10b-hexahydrobenzo[f]quinolin-3-one]: 83.3%; `O=C1CC=C2c3ccc(Cl)cc3CCC2N1` (racemic) [Example 50B, dl-8-chloro-2,3,4,4a,5,6-hexahydrobenzo[f]quinolin-3-one]: 84%. For `CN1C(=O)CC=C2c3ccc(Cl)cc3CCC21` (racemic) [Example 53, dl-8-chloro-4-methyl-2,3,4,4a,5,6-hexahydrobenzo[f]quinolin-3-one], the inhibition at 0.316 µM amounted to 74.8%.

`C[C@@H]1C[C@@H]2c3ccc(Cl)cc3C=C[C@H]2N(C)C1=O` (racemic) [Example 54, trans-dl-8-chloro-2-a-methyl-4-methyl-1,2,3,4,4a,10b-hexahydrobenzo[f]quinolin-3-one]: the inhibition at 0.316 µM is 73.8%.

For `CN1C(=O)CC[C@@H]2c3ccc(CCC(=O)NC(C)(C)C)cc3CC[C@H]21` (racemic) [Example 55, trans-dl-8-t-butylaminocarbonylethanediyl-4-methyl-1,2,3,4,4a,5,6,10b-octahydrobenzo[f]quinolin-3-one], the inhibition at 0.316 µM amounted to 17.3%. Still for that read-out and setting: next, `CN1C(=O)CC[C@@H]2c3ccc(-c4ccccc4)cc3CC[C@H]21` (racemic) [Example 56, trans-dl-8-phenyl-4-methyl-1,2,3,4,4a,5,6,10b-octahydrobenzo[f]quinolin-3-one]: 74.8%; `C=Cc1ccc2c(c1)CC[C@@H]1[C@@H]2CCC(=O)N1C` (racemic) [Example 57, trans-dl-8-vinyl-4-methyl-1,2,3,4,4a,5,6,10b-octahydrobenzo[f]quinolin-3-one]: 66.6%. On to `CCOC(=O)c1ccc2c(c1)CC[C@@H]1[C@@H]2CCC(=O)N1C` (racemic) [Example 58, trans-dl-8-ethoxycarbonyl-4-methyl-1,2,3,4,4a,5,6,10b-octahydrobenzo[f]quinolin-3-one], for which the inhibition at 0.316 µM amounted to 65.7%.

Regarding `CCN1C(=O)CC[C@@]2(C)c3ccccc3CC[C@H]12` (relative stereo) [Example 42, trans-4-ethyl-10b-methyl-1,2,3,4,4a,5,6,10b-octahydrobenzo[f]quinolin-3-one], the inhibition at 0.316 µM was determined as 10.9%. Turning to `CCCCN1C(=O)CC[C@@]2(C)c3ccccc3CC[C@H]12` (relative stereo) [Example 43, trans-4-n-butyl-10b-methyl-1,2,3,4,4a,5,6,10b-octahydrobenzo[f]quinolin-3-one], the inhibition at 0.316 µM came out at 11.9%. On the same count and under the same terms, the same measure for `CN1C(=O)CC[C@]2(C)c3ccc(Cl)cc3CC[C@@H]12` [Example 59, (R) (+)-trans-4-methyl-8-chloro-10b-methyl-1,2,3,4,4a,5,6,10b-octahydrobenzo[f]quinolin-3-one]: 71.9%; for `C[C@]12C=CC(=O)N[C@@H]1CCc1cc(Cl)ccc12` [Example 61, (R) (+)-trans-8-chloro-10b-methyl-3,4,4a,5,6,10b-hexahydrobenzo[f]quinolin-3-one]: 61.5%.

Staying with this test, now noted: Hs68, test compound 1.00 µM; Hs68 cells; substrate testosterone 12 µM; incubated four hours.
With `CN1C(=O)CCC2(C)c3ccc(Cl)cc3CCC12` (racemic) [Example 34, trans-dl-8-chloro-4,10b-di-methyl-1,2,3,4,4a,5,6,10b-octahydrobenzo[f]-quinolin-3-one], the inhibition at 1 µM was 94.2%.

The test is the same for the next values; noted with them: Hs68, test compound 1.00 µM; Hs68 cells; substrate testosterone 12 µM; incubated four hours; read-out: % Inhibition.
Turning to `CN1C(=O)CCC2(C)c3ccc(F)cc3CCC12` (racemic) [Example 32, trans-dl-8-fluoro-4,10b-dimethyl-1,2,3,4,4a,5,6,10b-octahydrobenzo[f]quinolin-3-one], the inhibition at 1 µM was determined as 81.6%. In the case of `C[C@]12CCC(=O)N[C@@H]1CCc1cc(Cl)ccc12` (racemic) [Example 38, trans-dl-8-chloro-10b-methyl-1,2,3,4,4a,5,6,10b-octahydrobenzo[f]quinolin-3-one], the inhibition at 1 µM was determined as 34%. For `CN1C(=O)C=C[C@@H]2c3ccc(Br)cc3CC[C@H]21` (racemic) [Example 51, trans-dl-8-bromo-4-methyl-3,4,4a,5,6,10b-hexahydrobenzo[f]quinolin-3-one], the inhibition at 1 µM is 95.1%. `CN1C(=O)C=C[C@@H]2c3ccc(Cl)cc3CC[C@H]21` (racemic) [Example 52, trans-dl-8-chloro-4-methyl-3,4,4a,5,6,10b-hexahydrobenzo[f]quinolin-3-one]: the inhibition at 1 µM is 71.8%.

Still in this test, the particulars now being: Hs68, test compound 3.16 µM; Hs68 cells; substrate testosterone 12 µM; incubated four hours.
`CN1C(=O)CC[C@@]2(C)c3ccccc3CC[C@H]12` (stereo in doubt) [Example 45, trans-4-methyl-10b-methyl-1,2,3,4,4a,5,6,10b-octahydrobenzo[f]quinolin-3-one] returned an inhibition at 3.16 µM of 72.2%.

Staying with this test, now noted: Hs68, test compound 150.00 µM; Hs68 cells; substrate testosterone 12 µM; incubated four hours.
`C[C@]12CCC(=O)N[C@@H]1CCc1ccccc12` (racemic) [Example 36, trans-dl-10b-methyl-1,2,3,4,4a,5,6,10b-octahydrobenzo[f]quinolin-3-one]: the inhibition at 150 µM was 43.9%.

Staying with this test, now noted: test compound 0.316 µM; Hs68 cells; substrate testosterone 12 µM; incubated four hours; read-out: % Inhibition.
Take `COc1ccc(CN2C(=O)CC[C@]3(C)c4ccc(Cl)cc4CC[C@@H]23)cc1` [Example 44]: the inhibition at 0.316 µM came to 5.7%.

The same test, now with this note: test compound 1.00 µM; Hs68 cells; substrate testosterone 12 µM; incubated four hours; read-out: % Inhibition.
Regarding `CN1C(=O)CC[C@]2(C)c3ccccc3CC[C@@H]12` (stereo in doubt) [Example 37, trans-dl-4,10b-dimethyl-1,2,3,4,4a,5,6,10b-octahydrobenzo[f]quinolin-3-one], the inhibition at 1 µM turned out to be 40%.

The same test, now with this note: test compound 15.00 µM; Hs68 cells; substrate testosterone 12 µM; incubated four hours.
In turn, `O=C1CC[C@@H]2c3cc([N+](=O)[O-])ccc3CC[C@H]2N1` (racemic) [Example 46, trans-dl-9-nitro-1,2,3,4,4a,5,6,10b-octahydrobenzo[f]quinolin-3-one] showed an inhibition at 15 µM of 69.9%.

These data come from patent publication EP0591583B1, “Benzo (f) quinolinones as 5-alpha-reductase inhibitors” (ELI LILLY AND COMPANY, priority 1992, dated 1994).
